Laboratory results published in ChEMBL document CHEMBL3351757, “Design and synthesis of novel and highly-active pan-histone deacetylase (pan-HDAC) inhibitors” (Bioorg Med Chem, 2014).

Assays:
Histone deacetylase 2 = Histone deacetylase 2 (Homo sapiens, UniProt Q92769); experiment: Inhibition of human HDAC2 pre-incubated for 30 mins before substrate addition and measured after 30 mins by HDAC-Glo I/II assay
Histone deacetylase 9 = Histone deacetylase 9 (Homo sapiens, UniProt Q9UKV0); experiment: Inhibition of human HDAC9 pre-incubated for 30 mins before substrate addition and measured after 30 mins by HDAC-Glo I/II assay
Histone deacetylase 4 = Histone deacetylase 4 (Homo sapiens, UniProt P56524); experiment: Inhibition of human HDAC4 pre-incubated for 30 mins before substrate addition and measured after 30 mins by HDAC-Glo I/II assay
[1] = biological target: T1, Protein deacetylase HDAC6 (Homo sapiens, UniProt Q9UBN7); experiment: Inhibition of human HDAC6 pre-incubated for 30 mins before substrate addition and measured after 30 mins by HDAC-Glo I/II assay
T1 sequence (Q9UBN7 whole entry): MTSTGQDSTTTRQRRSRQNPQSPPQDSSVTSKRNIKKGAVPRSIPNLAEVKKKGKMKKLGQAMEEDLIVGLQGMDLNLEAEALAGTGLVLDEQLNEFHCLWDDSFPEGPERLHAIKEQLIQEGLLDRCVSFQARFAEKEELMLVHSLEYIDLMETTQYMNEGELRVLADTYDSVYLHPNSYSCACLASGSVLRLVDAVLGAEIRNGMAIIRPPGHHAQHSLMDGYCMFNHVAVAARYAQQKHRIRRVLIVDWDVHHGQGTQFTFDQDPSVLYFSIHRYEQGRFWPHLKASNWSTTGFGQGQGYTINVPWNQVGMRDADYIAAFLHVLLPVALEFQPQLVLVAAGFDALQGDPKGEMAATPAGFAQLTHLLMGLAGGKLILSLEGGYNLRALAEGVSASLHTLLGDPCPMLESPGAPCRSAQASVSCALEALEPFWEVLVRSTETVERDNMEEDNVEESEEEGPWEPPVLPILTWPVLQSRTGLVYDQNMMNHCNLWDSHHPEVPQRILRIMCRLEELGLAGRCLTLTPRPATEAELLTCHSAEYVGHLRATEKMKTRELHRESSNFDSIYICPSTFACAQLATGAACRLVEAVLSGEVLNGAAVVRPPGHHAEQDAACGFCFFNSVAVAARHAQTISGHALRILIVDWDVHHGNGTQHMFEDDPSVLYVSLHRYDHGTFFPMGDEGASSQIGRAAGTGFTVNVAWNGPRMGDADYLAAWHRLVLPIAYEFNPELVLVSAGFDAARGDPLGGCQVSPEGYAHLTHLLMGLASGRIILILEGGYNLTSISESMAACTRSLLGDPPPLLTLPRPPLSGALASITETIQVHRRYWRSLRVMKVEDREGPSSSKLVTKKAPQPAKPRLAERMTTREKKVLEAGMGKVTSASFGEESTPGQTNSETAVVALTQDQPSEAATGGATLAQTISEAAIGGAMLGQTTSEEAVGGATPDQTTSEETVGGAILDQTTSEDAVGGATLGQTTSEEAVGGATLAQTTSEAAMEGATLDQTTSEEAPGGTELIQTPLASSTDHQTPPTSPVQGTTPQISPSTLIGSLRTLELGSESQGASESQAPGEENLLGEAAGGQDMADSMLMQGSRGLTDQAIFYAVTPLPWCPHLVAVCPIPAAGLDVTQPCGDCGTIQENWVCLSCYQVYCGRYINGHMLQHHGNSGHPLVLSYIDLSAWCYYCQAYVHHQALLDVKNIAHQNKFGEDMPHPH

[2] = biological target: T2, Histone deacetylase (Rattus norvegicus) (UniProt Q6P6W3+Q99P99+Q99P96+Q4QQW4+Q99P97+Q5RJZ2+B1WBY8); conditions: at 0.1 µM
Description: Inhibition of rat liver HDAC at 0.1 uM pre-incubated for 15 mins before Boc-Lys(Ac)-AMC substrate addition and measured after 30 mins by fluorometry

Histone deacetylase 8 = biological target: T3, Histone deacetylase 8 (Homo sapiens, UniProt Q9BY41); experiment: Inhibition of human HDAC8 pre-incubated for 30 mins before substrate addition and measured after 30 mins by HDAC-Glo I/II assay
T3 sequence (Q9BY41 whole entry): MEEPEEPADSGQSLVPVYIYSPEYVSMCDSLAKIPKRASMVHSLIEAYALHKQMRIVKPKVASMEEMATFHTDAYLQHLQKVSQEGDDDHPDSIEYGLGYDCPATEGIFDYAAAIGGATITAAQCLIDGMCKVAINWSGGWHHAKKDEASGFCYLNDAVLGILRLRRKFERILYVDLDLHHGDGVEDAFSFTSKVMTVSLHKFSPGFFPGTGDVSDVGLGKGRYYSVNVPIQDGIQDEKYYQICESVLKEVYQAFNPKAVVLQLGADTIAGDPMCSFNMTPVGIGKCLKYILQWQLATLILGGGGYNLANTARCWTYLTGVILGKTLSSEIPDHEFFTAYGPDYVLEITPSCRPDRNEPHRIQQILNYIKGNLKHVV

Histone deacetylase 1 = Histone deacetylase 1 (Homo sapiens, UniProt Q13547); experiment: Inhibition of human HDAC1 pre-incubated for 30 mins before substrate addition and measured after 30 mins by HDAC-Glo I/II assay
[3] = biological target: T2, Histone deacetylase (Rattus norvegicus); conditions: at 10 µM
Description: Inhibition of rat liver HDAC at 10 uM pre-incubated for 15 mins before Boc-Lys(Ac)-AMC substrate addition and measured after 30 mins by fluorometry

Histone deacetylase 3 = Histone deacetylase 3 (Homo sapiens, UniProt O15379); experiment: Inhibition of human HDAC3 pre-incubated for 30 mins before substrate addition and measured after 30 mins by HDAC-Glo I/II assay
Histone deacetylase 3, sequence (O15379 whole entry): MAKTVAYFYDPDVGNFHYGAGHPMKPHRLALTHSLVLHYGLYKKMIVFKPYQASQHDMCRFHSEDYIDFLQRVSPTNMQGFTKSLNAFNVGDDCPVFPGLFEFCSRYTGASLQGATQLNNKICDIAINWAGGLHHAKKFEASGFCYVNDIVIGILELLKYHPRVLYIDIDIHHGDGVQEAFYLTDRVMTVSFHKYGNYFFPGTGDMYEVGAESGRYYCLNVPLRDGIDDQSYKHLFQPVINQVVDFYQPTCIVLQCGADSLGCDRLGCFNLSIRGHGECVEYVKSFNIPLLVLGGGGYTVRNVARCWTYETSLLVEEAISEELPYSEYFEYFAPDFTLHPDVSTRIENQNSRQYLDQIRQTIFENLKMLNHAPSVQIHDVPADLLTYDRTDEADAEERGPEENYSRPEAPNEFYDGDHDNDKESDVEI

Histone deacetylase 1, sequence (Q13547 whole entry): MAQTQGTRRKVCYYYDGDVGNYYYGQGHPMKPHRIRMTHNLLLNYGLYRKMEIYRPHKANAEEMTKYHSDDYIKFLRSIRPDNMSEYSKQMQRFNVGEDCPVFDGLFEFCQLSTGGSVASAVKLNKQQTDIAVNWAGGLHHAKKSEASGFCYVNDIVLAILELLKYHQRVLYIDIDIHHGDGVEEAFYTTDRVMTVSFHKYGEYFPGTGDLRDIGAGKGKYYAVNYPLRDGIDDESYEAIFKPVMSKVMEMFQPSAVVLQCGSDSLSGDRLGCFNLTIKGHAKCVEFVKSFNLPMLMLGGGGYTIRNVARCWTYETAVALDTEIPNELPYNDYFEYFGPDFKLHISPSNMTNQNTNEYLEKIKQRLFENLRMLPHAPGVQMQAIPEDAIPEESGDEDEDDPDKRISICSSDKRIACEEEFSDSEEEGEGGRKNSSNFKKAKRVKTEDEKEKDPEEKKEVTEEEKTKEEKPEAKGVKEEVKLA
Histone deacetylase 4, sequence (P56524 whole entry): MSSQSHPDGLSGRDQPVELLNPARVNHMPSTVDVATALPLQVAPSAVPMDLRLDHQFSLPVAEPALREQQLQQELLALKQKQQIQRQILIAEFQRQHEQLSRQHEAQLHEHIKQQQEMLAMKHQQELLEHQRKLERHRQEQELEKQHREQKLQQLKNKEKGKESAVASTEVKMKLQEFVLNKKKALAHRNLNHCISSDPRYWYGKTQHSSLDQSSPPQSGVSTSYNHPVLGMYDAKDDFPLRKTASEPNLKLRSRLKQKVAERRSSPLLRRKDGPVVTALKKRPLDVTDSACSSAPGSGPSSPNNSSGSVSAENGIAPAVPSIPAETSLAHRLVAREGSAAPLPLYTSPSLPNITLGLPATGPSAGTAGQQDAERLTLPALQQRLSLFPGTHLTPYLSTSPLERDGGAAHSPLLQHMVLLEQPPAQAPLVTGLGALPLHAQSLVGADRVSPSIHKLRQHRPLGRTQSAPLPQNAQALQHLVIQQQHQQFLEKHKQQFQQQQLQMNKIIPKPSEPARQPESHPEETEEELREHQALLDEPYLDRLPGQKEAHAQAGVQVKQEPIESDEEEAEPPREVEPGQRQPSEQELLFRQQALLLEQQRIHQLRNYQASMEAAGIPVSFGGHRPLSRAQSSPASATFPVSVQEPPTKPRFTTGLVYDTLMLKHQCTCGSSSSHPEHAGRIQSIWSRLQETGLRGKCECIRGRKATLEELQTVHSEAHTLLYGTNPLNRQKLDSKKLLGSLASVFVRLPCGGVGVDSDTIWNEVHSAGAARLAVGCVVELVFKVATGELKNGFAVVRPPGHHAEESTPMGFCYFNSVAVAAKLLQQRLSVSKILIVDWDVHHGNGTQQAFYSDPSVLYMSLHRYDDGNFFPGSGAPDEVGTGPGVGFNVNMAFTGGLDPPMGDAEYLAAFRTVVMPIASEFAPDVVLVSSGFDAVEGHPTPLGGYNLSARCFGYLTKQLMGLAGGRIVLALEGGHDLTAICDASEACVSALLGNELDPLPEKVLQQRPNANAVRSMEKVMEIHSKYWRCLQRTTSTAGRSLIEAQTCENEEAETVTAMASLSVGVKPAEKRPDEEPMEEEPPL
Histone deacetylase 2, sequence (Q92769 whole entry): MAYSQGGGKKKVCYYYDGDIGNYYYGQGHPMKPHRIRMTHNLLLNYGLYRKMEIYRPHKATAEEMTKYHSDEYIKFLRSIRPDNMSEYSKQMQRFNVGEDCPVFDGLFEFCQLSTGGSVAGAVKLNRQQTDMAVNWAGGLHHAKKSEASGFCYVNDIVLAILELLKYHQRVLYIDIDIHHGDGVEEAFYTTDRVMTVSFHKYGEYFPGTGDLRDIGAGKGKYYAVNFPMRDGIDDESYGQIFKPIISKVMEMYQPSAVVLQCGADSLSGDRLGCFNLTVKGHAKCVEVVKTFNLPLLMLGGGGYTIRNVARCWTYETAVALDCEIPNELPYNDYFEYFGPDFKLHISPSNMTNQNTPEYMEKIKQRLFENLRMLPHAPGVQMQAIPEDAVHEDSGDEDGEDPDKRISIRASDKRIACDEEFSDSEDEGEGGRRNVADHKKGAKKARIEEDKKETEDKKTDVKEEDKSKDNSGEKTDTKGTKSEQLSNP
Histone deacetylase 9, sequence (Q9UKV0 whole entry): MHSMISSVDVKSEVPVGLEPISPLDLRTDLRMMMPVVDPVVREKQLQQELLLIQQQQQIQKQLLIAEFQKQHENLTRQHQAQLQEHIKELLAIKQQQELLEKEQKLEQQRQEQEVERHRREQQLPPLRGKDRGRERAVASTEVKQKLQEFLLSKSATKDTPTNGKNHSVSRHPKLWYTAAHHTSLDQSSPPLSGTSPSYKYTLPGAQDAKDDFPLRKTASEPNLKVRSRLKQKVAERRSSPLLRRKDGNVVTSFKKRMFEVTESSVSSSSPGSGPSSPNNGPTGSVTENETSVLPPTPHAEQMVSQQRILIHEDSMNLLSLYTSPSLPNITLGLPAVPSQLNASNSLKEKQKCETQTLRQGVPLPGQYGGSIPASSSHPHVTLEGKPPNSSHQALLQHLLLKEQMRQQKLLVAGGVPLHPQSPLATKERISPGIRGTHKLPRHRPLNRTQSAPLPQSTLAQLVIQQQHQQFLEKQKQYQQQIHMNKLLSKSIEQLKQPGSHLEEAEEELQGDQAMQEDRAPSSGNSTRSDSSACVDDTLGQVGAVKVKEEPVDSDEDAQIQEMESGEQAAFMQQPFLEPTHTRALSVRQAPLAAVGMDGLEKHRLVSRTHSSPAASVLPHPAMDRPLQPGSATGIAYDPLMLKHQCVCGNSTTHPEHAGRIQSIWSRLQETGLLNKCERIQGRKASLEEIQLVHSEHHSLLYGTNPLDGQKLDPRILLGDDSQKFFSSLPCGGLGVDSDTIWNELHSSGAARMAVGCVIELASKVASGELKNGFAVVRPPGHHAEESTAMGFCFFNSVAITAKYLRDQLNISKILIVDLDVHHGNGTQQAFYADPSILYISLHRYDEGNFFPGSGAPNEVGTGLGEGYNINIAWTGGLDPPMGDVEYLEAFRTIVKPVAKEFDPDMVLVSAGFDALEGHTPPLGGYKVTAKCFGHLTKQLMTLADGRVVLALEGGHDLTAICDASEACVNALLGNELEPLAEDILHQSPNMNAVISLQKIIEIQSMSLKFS

Row | IC50 (Histone deacetylase 2) [nM] | IC50 (Histone deacetylase 9) [nM] | IC50 (Histone deacetylase 4) [nM] | IC50 [1] [nM] | inhibition [2] [%] | IC50 (Histone deacetylase 8) [nM] | IC50 (Histone deacetylase 1) [nM] | inhibition [3] [%] | IC50 (Histone deacetylase 3) [nM] | SMILES
1 | 25 | 46 | 280 | 280 | 68 | 73 | 24 | 100 | 180 | O=C(CCCCCCNC(=O)c1ccc2[nH]c(=O)ccc2c1)NO
2 | 18 | 25 | 120 | 630 | 51 | 94 | 14 | 98 | 91 | O=C(CCCCCCC(=O)Nc1ccc2c(c1)CCC(=O)N2)NO
3 | 93 | 39 | 63 | 92 | 44 | 55 | 30 | 98 | 69 | CC1(C)CC(=O)Nc2ccc(C(=O)NCCCCCCC(=O)NO)cc21
